Converted amounts (≈) assume the structure as drawn. Where a SMILES comes first, the peptide text is derived from it. [ ]: non-standard residue; d: D form. The star is where a group is joined. Dab = NCC[C@H](N)C(=O)O; Hexanoyl = CCCCCC(=O)*
Columns and labels:
Klebsiella pneumoniae = assay: Antibacterial activity against Klebsiella pneumoniae ATCC 700603 assessed as bacterial growth inhibition incubated for 18 hrs by broth microdilution method; format: functional
Erythrocyte = assay: Hemolytic activity in mouse red blood cell assessed as hemolysis incubated for 1 hr; format: toxicity, cell-based; conditions: dose 4-256 µg/ml
Bacillus subtilis = assay: Antibacterial activity against Bacillus subtilis ATCC 23857 assessed as bacterial growth inhibition incubated for 18 hrs by broth microdilution method; format: functional
[1] = Hemolytic activity in mouse red blood cells assessed as hemolysis at 256 microg/ml incubated for 1 hr relative to control; format: toxicity, cell-based, Erythrocyte; conditions: red blood cells (erythrocytes), at 256 µg/mL, read-out: Activity
Enterococcus faecalis = assay: Antibacterial activity against Enterococcus faecalis ATCC 29212 assessed as bacterial growth inhibition incubated for 18 hrs by broth microdilution method; format: functional
Escherichia coli = assay: Antibacterial activity against Escherichia coli ATCC 25922 assessed as bacterial growth inhibition incubated for 18 hrs by broth microdilution method; format: functional
Staphylococcus aureus = assay: Antibacterial activity against Staphylococcus aureus ATCC 25923 assessed as bacterial growth inhibition incubated for 18 hrs by broth microdilution method; format: functional
Pseudomonas aeruginosa = assay: Antibacterial activity against Pseudomonas aeruginosa ATCC 27853 assessed as bacterial growth inhibition incubated for 18 hrs by broth microdilution method; format: functional

MIC (Klebsiella pneumoniae) [µg/mL]	MIC (Bacillus subtilis) [µg/mL]	MIC (Enterococcus faecalis) [µg/mL]	MIC (Escherichia coli) [µg/mL]	MIC (Staphylococcus aureus) [µg/mL]	MIC (Pseudomonas aeruginosa) [µg/mL]	SMILES	HC10 (Erythrocyte) [µg/mL]	hemolysis at 1 h, 256 µg/mL [1] [%]
64 (≈ 57.2 µM)	8 (≈ 7.15 µM)	> 128	32 (≈ 28.6 µM)	> 128	4 (≈ 3.58 µM)	CC[C@H](C)[C@H](NC(=O)[C@H](CCN)NC(=O)CC(O)C(C)C)C(=O)N[C@@H](CCN)C(=O)N[C@H](Cc1ccccc1)C(=O)N[C@@H](CC(C)C)C(=O)N[C@@H](CCN)C(=O)N[C@@H](C(=O)N[C@@H](CC(C)C)C(=O)N[C@H](C(N)=O)[C@@H](C)O)C(C)C (some centres undefined)	512	< 2
32 (≈ 28.3 µM)	8 (≈ 7.08 µM)	128 (≈ 113 µM)	64 (≈ 56.7 µM)	64 (≈ 56.7 µM)	2 (≈ 1.77 µM)	CCCCCC(=O)N[C@@H](CCN)C(=O)N[C@H](C(=O)N[C@@H](CCN)C(=O)N[C@H](Cc1ccccc1)C(=O)N[C@@H](CC(C)C)C(=O)N[C@@H](CCN)C(=O)N[C@@H](C(=O)N[C@@H](CC(C)C)C(=O)N[C@@H](CCCCN)C(N)=O)C(C)C)[C@@H](C)CC	512	< 5
32 (≈ 29.1 µM)	16 (≈ 14.5 µM)	> 128	32 (≈ 29.1 µM)	> 128	16 (≈ 14.5 µM)	CC[C@H](C)[C@@H]1NC(=O)[C@H](CCN)NC(=O)[C@H](CC(C)C)NC(=O)[C@H]([C@@H](C)O)NC(=O)[C@H](CC(C)C)NC(=O)[C@@H](C(C)C)NC(=O)[C@H](CCN)NC(=O)[C@H](CC(C)C)NC(=O)[C@@H](Cc2ccccc2)NC(=O)[C@H](CCN)NC1=O	512	< 5
64 (≈ 58.8 µM)	8 (≈ 7.35 µM)	128 (≈ 118 µM)	32 (≈ 29.4 µM)	64 (≈ 58.8 µM)	4 (≈ 3.68 µM)	CCCCCC(=O)N[C@@H](CCN)C(=O)N[C@H](C(=O)N[C@@H](CCN)C(=O)N[C@H](Cc1ccccc1)C(=O)N[C@@H](CC(C)C)C(=O)N[C@@H](CCN)C(=O)N[C@@H](C(=O)N[C@@H](CC(C)C)C(=O)N[C@@H](CO)C(N)=O)C(C)C)[C@@H](C)CC (Hexanoyl-[Dab]I[Dab][dF]L[Dab][dV]LS-NH2)	512	< 5
2 (≈ 1.71 µM)	2 (≈ 1.71 µM)	8 (≈ 6.82 µM)	4 (≈ 3.41 µM)	2 (≈ 1.71 µM)	2 (≈ 1.71 µM)	CCCCCCCCCCC(=O)N[C@@H](CCN)C(=O)N[C@H](C(=O)N[C@@H](CCN)C(=O)N[C@H](Cc1ccccc1)C(=O)N[C@@H](CC(C)C)C(=O)N[C@@H](CCN)C(=O)N[C@@H](C(=O)N[C@@H](CC(C)C)C(=O)N[C@H](C(N)=O)[C@@H](C)O)C(C)C)[C@@H](C)CC	16	–
> 128	32 (≈ 31.9 µM)	> 128	128 (≈ 127 µM)	> 128	32 (≈ 31.9 µM)	CC[C@H](C)[C@H](NC(=O)[C@@H](N)CCN)C(=O)N[C@@H](CCN)C(=O)N[C@H](Cc1ccccc1)C(=O)N[C@@H](CC(C)C)C(=O)N[C@@H](CCN)C(=O)N[C@@H](C(=O)N[C@@H](CC(C)C)C(=O)N[C@H](C(N)=O)[C@@H](C)O)C(C)C	512	–
8 (≈ 6.99 µM)	4 (≈ 3.49 µM)	8 (≈ 6.99 µM)	4 (≈ 3.49 µM)	8 (≈ 6.99 µM)	8 (≈ 6.99 µM)	CCCCCCCCC(=O)N[C@@H](CCN)C(=O)N[C@H](C(=O)N[C@@H](CCN)C(=O)N[C@H](Cc1ccccc1)C(=O)N[C@@H](CC(C)C)C(=O)N[C@@H](CCN)C(=O)N[C@@H](C(=O)N[C@@H](CC(C)C)C(=O)N[C@H](C(N)=O)[C@@H](C)O)C(C)C)[C@@H](C)CC	64	–
> 128	16 (≈ 13.2 µM)	16 (≈ 13.2 µM)	128 (≈ 105 µM)	32 (≈ 26.3 µM)	32 (≈ 26.3 µM)	CCCCCCCCCCCCCC(=O)N[C@@H](CCN)C(=O)N[C@H](C(=O)N[C@@H](CCN)C(=O)N[C@H](Cc1ccccc1)C(=O)N[C@@H](CC(C)C)C(=O)N[C@@H](CCN)C(=O)N[C@@H](C(=O)N[C@@H](CC(C)C)C(=O)N[C@H](C(N)=O)[C@@H](C)O)C(C)C)[C@@H](C)CC	32	–

The remaining lines, values behind:

SMILES	MIC (Klebsiella pneumoniae) [µg/mL]	MIC (Bacillus subtilis) [µg/mL]	MIC (Enterococcus faecalis) [µg/mL]	MIC (Escherichia coli) [µg/mL]	MIC (Staphylococcus aureus) [µg/mL]	MIC (Pseudomonas aeruginosa) [µg/mL]	HC10 (Erythrocyte) [µg/mL]	hemolysis at 1 h, 256 µg/mL [1] [%]
CCCCCC(=O)N[C@H]1CCNC(=O)[C@H]([C@@H](C)O)NC(=O)[C@H](CC(C)C)NC(=O)[C@@H](C(C)C)NC(=O)[C@H](CCN)NC(=O)[C@H](CC(C)C)NC(=O)[C@@H](Cc2ccccc2)NC(=O)[C@H](CCN)NC(=O)[C@H]([C@@H](C)CC)NC1=O	64 (≈ 59 µM)	128 (≈ 118 µM)	> 128	32 (≈ 29.5 µM)	> 128	> 128	512	< 5
CCCCCCCCCCCCC(=O)N[C@@H](CCN)C(=O)N[C@H](C(=O)N[C@@H](CCN)C(=O)N[C@H](Cc1ccccc1)C(=O)N[C@@H](CC(C)C)C(=O)N[C@@H](CCN)C(=O)N[C@@H](C(=O)N[C@@H](CC(C)C)C(=O)N[C@H](C(N)=O)[C@@H](C)O)C(C)C)[C@@H](C)CC	16 (≈ 13.3 µM)	16 (≈ 13.3 µM)	8 (≈ 6.66 µM)	8 (≈ 6.66 µM)	32 (≈ 26.7 µM)	16 (≈ 13.3 µM)	8	–
CCCCCC(=O)N[C@@H](CCN)C(=O)N[C@H](C(=O)N[C@H]1CCNC(=O)[C@H]([C@@H](C)O)NC(=O)[C@H](CC(C)C)NC(=O)[C@@H](C(C)C)NC(=O)[C@H](CCN)NC(=O)[C@H](CC(C)C)NC(=O)[C@@H](Cc2ccccc2)NC1=O)[C@@H](C)CC	64 (≈ 59 µM)	4 (≈ 3.69 µM)	64 (≈ 59 µM)	16 (≈ 14.7 µM)	32 (≈ 29.5 µM)	64 (≈ 59 µM)	512	< 5
CCCCCC(=O)N[C@@H](CCN)C(=O)N[C@H](C(=O)N[C@@H](CCN)C(=O)N[C@H](Cc1ccccc1)C(=O)N[C@@H](CC(C)C)C(=O)N[C@@H](CCN)C(=O)N[C@@H](C(=O)N[C@@H](CC(C)C)C(=O)N[C@@H](Cc1ccc(O)cc1)C(N)=O)C(C)C)[C@@H](C)CC	8 (≈ 6.87 µM)	4 (≈ 3.43 µM)	64 (≈ 55 µM)	4 (≈ 3.43 µM)	16 (≈ 13.7 µM)	16 (≈ 13.7 µM)	512	< 5
CCCCCCCC(=O)N[C@@H](CCN)C(=O)N[C@H](C(=O)N[C@@H](CCN)C(=O)N[C@H](Cc1ccccc1)C(=O)N[C@@H](CC(C)C)C(=O)N[C@@H](CCN)C(=O)N[C@@H](C(=O)N[C@@H](CC(C)C)C(=O)N[C@H](C(N)=O)[C@@H](C)O)C(C)C)[C@@H](C)CC	8 (≈ 7.08 µM)	4 (≈ 3.54 µM)	16 (≈ 14.2 µM)	4 (≈ 3.54 µM)	8 (≈ 7.08 µM)	8 (≈ 7.08 µM)	128	–
CCCCCCCCCCCC(=O)N[C@@H](CCN)C(=O)N[C@H](C(=O)N[C@@H](CCN)C(=O)N[C@H](Cc1ccccc1)C(=O)N[C@@H](CC(C)C)C(=O)N[C@@H](CCN)C(=O)N[C@@H](C(=O)N[C@@H](CC(C)C)C(=O)N[C@H](C(N)=O)[C@@H](C)O)C(C)C)[C@@H](C)CC	8 (≈ 6.74 µM)	8 (≈ 6.74 µM)	4 (≈ 3.37 µM)	4 (≈ 3.37 µM)	16 (≈ 13.5 µM)	8 (≈ 6.74 µM)	8	–
CCC[C@H](O)CC(=O)N[C@@H](CCN)C(=O)N[C@H](C(=O)N[C@@H](CCN)C(=O)N[C@H](Cc1ccccc1)C(=O)N[C@@H](CC(C)C)C(=O)N[C@@H](CCN)C(=O)N[C@@H](C(=O)N[C@@H](CC(C)C)C(=O)N[C@H](C(N)=O)[C@@H](C)O)C(C)C)[C@@H](C)CC	64 (≈ 57.2 µM)	8 (≈ 7.15 µM)	> 128	32 (≈ 28.6 µM)	128 (≈ 114 µM)	4 (≈ 3.58 µM)	512	< 2
CCCCCCC(=O)N[C@@H](CCN)C(=O)N[C@H](C(=O)N[C@@H](CCN)C(=O)N[C@H](Cc1ccccc1)C(=O)N[C@@H](CC(C)C)C(=O)N[C@@H](CCN)C(=O)N[C@@H](C(=O)N[C@@H](CC(C)C)C(=O)N[C@H](C(N)=O)[C@@H](C)O)C(C)C)[C@@H](C)CC	8 (≈ 7.17 µM)	4 (≈ 3.58 µM)	64 (≈ 57.3 µM)	4 (≈ 3.58 µM)	16 (≈ 14.3 µM)	16 (≈ 14.3 µM)	256	–
CCCCCCCCCC(=O)N[C@@H](CCN)C(=O)N[C@H](C(=O)N[C@@H](CCN)C(=O)N[C@H](Cc1ccccc1)C(=O)N[C@@H](CC(C)C)C(=O)N[C@@H](CCN)C(=O)N[C@@H](C(=O)N[C@@H](CC(C)C)C(=O)N[C@H](C(N)=O)[C@@H](C)O)C(C)C)[C@@H](C)CC	4 (≈ 3.45 µM)	4 (≈ 3.45 µM)	8 (≈ 6.91 µM)	4 (≈ 3.45 µM)	4 (≈ 3.45 µM)	4 (≈ 3.45 µM)	32	–
C/C=C(/NC(=O)[C@H](CC(C)C)NC(=O)[C@H](NC(=O)[C@H](CCN)NC(=O)[C@H](CC(C)C)NC(=O)[C@@H](Cc1ccccc1)NC(=O)[C@H](CCN)NC(=O)[C@@H](NC(=O)[C@H](CCN)NC(=O)C[C@@H](O)CCC)[C@@H](C)CC)C(C)C)C(=O)O	128 (≈ 116 µM)	32 (≈ 29.1 µM)	> 128	64 (≈ 58.1 µM)	> 128	32 (≈ 29.1 µM)	512	–
NC[C@H]1O[C@H](O[C@H]2[C@H](O)[C@@H](O[C@H]3O[C@H](CO)[C@@H](O)[C@H](N)[C@H]3O)[C@H](N)C[C@@H]2N)[C@H](O)[C@@H](O)[C@@H]1O [KANAMYCIN]	32 (≈ 66 µM)	< 1	16 (≈ 33 µM)	4 (≈ 8.26 µM)	< 1	> 128	–	–
CN[C@H](CC(C)C)C(=O)N[C@H]1C(=O)N[C@@H](CC(N)=O)C(=O)N[C@H]2C(=O)N[C@H]3C(=O)N[C@H](C(=O)N[C@H](C(=O)O)c4cc(O)cc(O)c4-c4cc3ccc4O)[C@H](O)c3ccc(c(Cl)c3)Oc3cc2cc(c3O[C@@H]2O[C@H](CO)[C@@H](O)[C@H](O)[C@H]2O[C@H]2C[C@](C)(N)[C@H](O)[C@H](C)O2)Oc2ccc(cc2Cl)[C@H]1O [VANCOMYCIN]	> 128	< 1	–	128 (≈ 88.3 µM)	–	> 128	–	–

Source: ChEMBL document CHEMBL5331122, “Structure-Activity Relationship Study of Antimicrobial Peptide PE2 Delivered Novel Linear Derivatives with Potential of Eradicating Biofilms and Low Incidence of Drug Resistance” (J Med Chem, 2023)
